Test results from US6090785A, “Substituted N-carboxyalkylpeptidyl derivatives as antidegenerative agents” (Merck & Co., Inc., priority 1992, dated 2000).

Assays:
Assay type in all cases: biochemical
gelatinase = experiment: Gelatinase inhibition assay with fluorogenic Dnp-peptide substrate (method of Stack et al); conditions: Gel = gelatinase
Source text: (§1) The capacity of representative compounds of formula I to inhibit collagenase and gelatinase lysis may be determined using the method of M. S. Stack et al, Biol. Chem 264, 4277 (1989). In such assay, a fluorogenic substrate Dnp-Pro-Leu-Gly-Leu-Trp-Ala-D-Arg.(SEQ ID NO:2) where the "Dnp" designation indicates a "dinitrophenyl" group and this group is indicated by "Xaa" in the Sequence Listing. is used. The tryptophan fluorescence is efficiently quenched by the dinitrophenyl group but when it is hydrolyzed by collagenase or gelatinase, there is increased fluorescence with cleavage occurring at the Gly-Leu bond.
(§2) Assays were performed in 0.05M Tris, 5 mM CaCl2, 0.2M NaCl up to 20% Me2 SO, pH 7.7 at either […] or 37° C. using peptide concentrations of 2.5 to 40 μM.
(§3) After addition of enzyme to initiate the reaction, the initial rate of substrate hydrolysis is determined by monitoring the increase in fluorescence emission at 346 nm. using an excitation wavelength of 280 nm. To determine the inhibitory activity the hydrolysis is measured fluorimetrically in the presence of increasing concentrations of the inhibitor and the Ki is determined.

collagenase = molecular target: T1, collagenase (Homo sapiens, UniProt P03956); experiment: Collagenase inhibition assay with fluorogenic Dnp-peptide substrate (method of Stack et al); conditions: CGase = collagenase
T1 sequence (P03956 100-469): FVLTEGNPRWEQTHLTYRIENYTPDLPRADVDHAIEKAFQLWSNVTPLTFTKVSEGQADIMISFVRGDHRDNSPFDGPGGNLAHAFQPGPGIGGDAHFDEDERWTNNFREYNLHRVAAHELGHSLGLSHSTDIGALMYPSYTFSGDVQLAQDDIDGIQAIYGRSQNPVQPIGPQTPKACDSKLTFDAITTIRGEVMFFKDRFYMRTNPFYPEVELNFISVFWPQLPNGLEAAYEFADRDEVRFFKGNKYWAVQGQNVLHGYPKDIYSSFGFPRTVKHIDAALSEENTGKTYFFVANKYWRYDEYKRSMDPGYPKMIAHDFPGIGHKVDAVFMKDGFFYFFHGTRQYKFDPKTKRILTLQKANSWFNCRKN
Source text: as §1, §2, §3

stromelysin = stromelysin (Homo sapiens, UniProt P08254); experiment: Stromelysin inhibition assay (HPLC/fluorometric determination of remaining peptide substrate); conditions: SLN = stromelysin; substrate 5 μM, enzyme 1.5 nM
Protocol: Briefly the assay may be carried out by incubating for four hours the inhibitor in dimethyl sulfoxide (DMSO) and 25 μl of 0.3726 μg/ml stromelysin, then adding 60 μl of 11.24 μM substrate and incubating the resulting mixture for 18 hours. The final concentrations of the substrate is 5 μM and of the enzyme 1.5 nM. At this time 50 μl of 0.3 M H3 PO4 is added and a portion of the mixture injected onto an HPLC column and the remaining substrate determined by fluorometric detection. The area of the substrate is quantitated and is plotted as a function of the inhibitor concentration. The Ki is calculated using the following equation: [formula] where area inhibited and ^area control are integrated HPLC areas for substrate for inhibited and uninhibited reactions, respectively; [I] is the inhibitor concentration; [S] is the substrate concentration.

Chain of stromelysin (P08254 100-477): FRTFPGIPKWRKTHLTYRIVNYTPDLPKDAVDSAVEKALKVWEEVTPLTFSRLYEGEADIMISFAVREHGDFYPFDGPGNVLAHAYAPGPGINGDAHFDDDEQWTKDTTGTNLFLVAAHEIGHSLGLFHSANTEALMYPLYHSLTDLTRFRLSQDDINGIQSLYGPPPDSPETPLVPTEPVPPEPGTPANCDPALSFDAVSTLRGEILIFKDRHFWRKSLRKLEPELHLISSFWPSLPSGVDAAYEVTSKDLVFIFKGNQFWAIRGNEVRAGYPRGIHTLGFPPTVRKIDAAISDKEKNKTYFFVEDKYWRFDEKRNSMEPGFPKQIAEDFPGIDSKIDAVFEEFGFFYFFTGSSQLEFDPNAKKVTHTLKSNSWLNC

Ki (gelatinase) [µM] | Ki (collagenase) [µM] | Ki (stromelysin) [µM] | SMILES
0.5 | > 10 | 0.24 | CC(C)C[C@H](NC(=O)[C@H](CCCCCCCCCN)N[C@H](C)C(=O)O)C(=O)Nc1ccccc1 [Compound 9a]
0.34 | > 10 | 0.57 | CCCCCCCC[C@H](N[C@H](C)C(=O)O)C(=O)N[C@@H](CC(C)C)C(=O)Nc1ccccc1 [Compound 9b]
0.56 | – | 0.85 | CCCCCCCCCC[C@H](N[C@H](C)C(=O)O)C(=O)N[C@@H](CC(C)C)C(=O)Nc1ccccc1 [Compound 9e]
0.11 | – | 0.37 | C[C@@H](N[C@@H](CCCCCCCCCN)C(=O)N[C@@H](CCCNC(=N)N)C(=O)Nc1ccccc1)C(=O)O [Compound 9d]
0.12 | – | 1.6 | CCCCCCCC[C@H](N[C@H](C)C(=O)O)C(=O)N[C@@H](CCCNC(=N)N)C(=O)Nc1ccccc1 [Compound 9c]
